US10583117B2, “Oxo-M and 4-PPBP induction of tenogenic differentiation of perivascular tendon stem cells” (The Trustees of Columbia University in the City of New York, priority 2016, dated 2020)
Entries after “also recorded” stand apart in the source; their conditions may differ.

Columns and labels:
[1] = tested on: CD146+ perivascular tendon stem/progenitor cells (PTSCs); assay type: cell-based, rat
FAK [2] = assay: Western blot, P-FAK in CD146- tendon cells; assay type: cell-based, rat; conditions: CD146− tendon cells (excluding PTSCs)
Protocol: (§1) Activation of FAK and ERK1/2 signaling by Oxo-M and 4-PPBP was further confirmed by western blot and siRNA knockdown (KD). […] With combined Oxo-M and 4-PPBP, both P-FAK and P-ERK1/2 were detected (FIG. 3A). […] In addition, siRNA KD of FAK and ERK1/2 were performed as described previously (Lee, et al., 2015, supra), which is hereby incorporated herein by reference in its entirety for all purposes.

FAK [3] = assay: Western blot, phosphorylation of FAK in PTSCs; assay type: cell-based, rat; conditions: 12 hours treatment in PTSCs
Protocol: as §1

[4] = tested on: fully transected rat patellar tendons; assay: Healing of fully transected rat patellar tendon, delivery via fibrin glue; assay type: in vivo; conditions: for tendon healing, H&E staining: Oxo-M 1 mM, 4-PPBP 10 μM in fibrin; for alignment of collagen fibers (Picrosirius Red, automated digital image processing): n=6; for effect on induced tenogenic differentiation of PTSCs and tendon healing: overall statement
ERK1/2 = assay: Western blot, phosphorylation of ERK1/2 in PTSCs; assay type: cell-based, rat; conditions: 12 hours treatment in PTSCs
Protocol: as §1

| Compound | COL-I gene expression ([1]; maleate) | COL-III gene expression ([1]; maleate) | P-FAK band (FAK [2]) | phosphorylation of FAK (P-FAK) (FAK [3]) | collagen fibers, polarized Picrosirius Red images ([4]; 1 week post-op) | tendon healing, H&E staining ([4]; 1 week post-op) | collagen fibers, polarized Picrosirius Red images ([4]; 2 weeks post-op) | collagen in healing zone, Masson's Trichrome staining ([4]; 2 weeks post-op) | tendon healing, H&E staining ([4]; 2 weeks post-op) | alignment of collagen fibers (Picrosirius Red, automated digital image processing) [4] | effect on induced tenogenic differentiation of PTSCs and tendon healing [4] | Scx gene expression [1] | Tn-C gene expression [1] | VIM gene expression [1] | phosphorylation of ERK1/2 (P-ERK1/2) (ERK1/2) |
| --- | --- | --- | --- | --- | --- | --- | --- | --- | --- | --- | --- | --- | --- | --- | --- |
| O=C(O)/C=C\C(=O)O.c1ccc(CCCCN2CCC(c3ccccc3)CC2)cc1 [4-PPBP, 4-phenyl-1-(4-phenylbutyl)-piperidine maleate] | elevated; also recorded: significantly increased | elevated; also recorded: significantly increased | no P-FAK band | resulted in phosphorylation | disrupted collagen structure | disorganized scar-like tissue | disrupted collagen structure | disrupted collagen structure | scar-like healing | disoriented fibers | only minimal effect | – | – | – | – |
| C[N+](C)(C)CC#CCN1CCCC1=O [Oxo-M, Oxotremorine methiodide] | – | – | no P-FAK band | resulted in phosphorylation | disrupted collagen structure | disorganized scar-like tissue | disrupted collagen structure | disrupted collagen structure | scar-like healing | disoriented fibers | only minimal effect | significant increases; also recorded: significantly increased | significant increases; also recorded: significantly increased | significant increases; also recorded: significantly increased | resulted in phosphorylation |
